“Also recorded” adds a separate entry of the source. Bridge positions count the residues as written; N and C are the ends. Square brackets hold non-standard residues; d marks the D form. Peptide text beside a SMILES is read from it.
Assays:
[1] = Growth as measured by animal weight; format: in vivo, C57BL6 mice; details: Woc4D or octreotide treatment P12-P16
Description: This protocol was approved by the Georgetown University Animal Care and Use committee and adhered to the Association for Research in Vision and Ophthalmology Statement for the Use of Animals in Ophthalmic and Vision Research. C57BL6 mice were obtained from Taconic Laboratories (Germantown, N.Y.). Neonatal mice were placed in an infant incubator with their nursing mother with 75% oxygen at P7 and remained in oxygen until removal to room air at P12 (Smith et al., 1994 Invest. Ophthalmol. Vis. Sci. 35, 101-11). Oxygen was delivered at 75±2%, measured with an oxygen analyser (Hudson Ventonics, Temecula, Calif., U.S.A.), and checked at least twice daily. Individual litters were either oxygen or room air reared. Within litters, differential treatment was performed including no treatment, octreotide, Woc4D, and sham injection. Animals were treated with injections for 5 days from P12 to P16. […] Animals were perfused with fluorescein conjugated dextran as previously described (D'Amato et al., 1993, Microvasc. Res. 46, 135-42) and retinopathy was assessed by a retinal scoring system shown in Table I. […]
Retinopathy scores were evaluated by the Kruskal-Wallis test for the overall group and by the Mann-Whitney test to determine differences between groups. Animals weights and GH expression were evaluated using Student's t-test. Statistical significance was determined at the P<0.05 level. […]

SSTR2 [2] = target: T1, SSTR2 (Homo sapiens, UniProt P30874); details: agonist analog; cited from earlier work
[3] = tested on: oxygen induced retinopathy; experiment: Oxygen induced retinopathy in neonatal mice, retinal scoring of fluorescein perfused whole mounts; format: in vivo, C57BL6 mice; details: for retinal neovascularization: mouse model of oxygen induced retinopathy; for median total retinopathy score / median total retinopathy score [median(25th, 75th quartile)]: oxygen reared; for median total retinopathy score [median(25th, 75th quartile)]: octreotide 20 μg kg^−1 bid s.c. P12-P16
Description: This protocol was approved by the Georgetown University Animal Care and Use committee and adhered to the Association for Research in Vision and Ophthalmology Statement for the Use of Animals in Ophthalmic and Vision Research. C57BL6 mice were obtained from Taconic Laboratories (Germantown, N.Y.). Neonatal mice were placed in an infant incubator with their nursing mother with 75% oxygen at P7 and remained in oxygen until removal to room air at P12 (Smith et al., 1994 Invest. Ophthalmol. Vis. Sci. 35, 101-11). Oxygen was delivered at 75±2%, measured with an oxygen analyser (Hudson Ventonics, Temecula, Calif., U.S.A.), and checked at least twice daily. Individual litters were either oxygen or room air reared. Within litters, differential treatment was performed including no treatment, octreotide, Woc4D, and sham injection. Animals were treated with injections for 5 days from P12 to P16. Animal killing was performed using a lethal dose of pentobarbital (120 mg/kg i.p.). Animals were perfused with fluorescein conjugated dextran as previously described (D'Amato et al., 1993, Microvasc. Res. 46, 135-42) and retinopathy was assessed by a retinal scoring system shown in Table I.
It was received and used as the acetate salt. Octreotide acetate was purchased from Polypeptide Laboratories. […] The analogs were dissolved in 33 mM acetate buffer (pH 5) with 135 mM NaCl. Sham injections were performed with that vehicle.
Retinopathy scores were evaluated by the Kruskal-Wallis test for the overall group and by the Mann-Whitney test to determine differences between groups. Animals weights and GH expression were evaluated using Student's t-test. Statistical significance was determined at the P<0.05 level.

[4] = tested on: pituitary growth hormone (GH) mRNA; experiment: Pituitary growth hormone mRNA expression by RT-PCR; format: in vivo, C57BL6 mice
Description: RNA was extracted using TRIzol reagent (Life Technologies, Rockville, Md., U.S.A.) as described by the manufacturer and reverse transcriptase polymerase chain reaction (RT-PCR) was performed. Ten μg of RNA and 2 μM oligo(dT) 16 (total volume 22 μl) were heated at 68° C. for 2 min and cooled on ice. […] The mixture was incubated at 42° C. for 1 hour, then 99° C. for 5 min. The resultant cDNA was diluted with 100 μl of water and stored at -20° C. until PCR was performed. […] The mixture was incubated for 4 min at 94° C., followed by 28 cycles of 45 s at 94° C., 45 s at 58° C., and 45 s at 72° C., followed by 7 min at 72° C., in a PCR apparatus (model 2400, Perkin Elmer). To verify equal amounts of RNA were used in the PCR reaction and to verify uniform amplification process, β-actin mRNA was also amplified from the sample as an internal control. […] A 100 bp DNA ladder was used as a size marker. The number of cycles versus intensity of the PCR band was evaluated to determine the optimum number of cycles to be in the linear range. […] Retinopathy scores were evaluated by the Kruskal-Wallis test for the overall group and by the Mann-Whitney test to determine differences between groups. Animals weights and GH expression were evaluated using Student's t-test. Statistical significance was determined at the P<0.05 level.

SSTR2 [5] = target: T1, SSTR2; details: cited from earlier work

T1 sequence (P30874 whole entry, species assumed, the tested form may be a part): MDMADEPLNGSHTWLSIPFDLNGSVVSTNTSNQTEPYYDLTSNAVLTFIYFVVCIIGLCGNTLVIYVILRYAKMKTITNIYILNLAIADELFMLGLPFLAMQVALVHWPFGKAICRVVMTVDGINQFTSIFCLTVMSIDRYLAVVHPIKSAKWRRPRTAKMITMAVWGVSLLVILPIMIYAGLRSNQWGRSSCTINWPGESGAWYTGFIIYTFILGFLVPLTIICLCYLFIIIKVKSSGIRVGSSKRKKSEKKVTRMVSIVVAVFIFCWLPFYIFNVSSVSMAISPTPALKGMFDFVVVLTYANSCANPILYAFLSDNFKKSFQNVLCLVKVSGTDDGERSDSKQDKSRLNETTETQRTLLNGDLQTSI

## C[C@@H](O)[C@H](NC(=O)[C@@H]1CSSC[C@H](NC(=O)[C@@H](Cc2ccc(O)cc2)NC(=O)[C@@H](Cc2ccc(O)cc2)NC(=O)[C@@H](Cc2ccc(O)cc2)NC(=O)[C@H](N)Cc2ccc(O)cc2)C(=O)N[C@@H](Cc2ccccc2)C(=O)N[C@H](Cc2c[nH]c3ccccc23)C(=O)N[C@@H](CCCCN)C(=O)N[C@@H]([C@@H](C)O)C(=O)N1)C(N)=O [Woc4D, Dtyr-Dtyr-Dtyr-Dtyr-cyclo(Cys-Phe-DTrp-Lys-Thr-Cys)-Thr-NH2] (H-[dY][dY][dY][dY]CF[dW]KTCT-NH2; disulfide 5-10; N-terminus assumed)
[1]
  growth as measured by animal weight: unaffected
SSTR2 [2]
  affinity of interaction with SSTR2: high affinity
[3]; Oxygen + Woc4D 50
  Blood vessel growth subscore, median: 0
  Blood vessel tortuosity subscore, median: 1
  Hemorrhage subscore, median: 1
[3]; Room air + Woc4D 50
  Blood vessel growth subscore, median (25th, 75th quartile): 0 (0, 0)
  Blood vessel tortuosity subscore, median (25th, 75th quartile): 0 (0, 0)
  Blood vessel tufts subscore, median (25th, 75th quartile): 0 (0, 0)
  Central vasoconstriction subscore, median (25th, 75th quartile): 0 (0, 0)
  Extra retinal neovascularization subscore, median (25th, 75th quartile): 0 (0, 0)
  Hemorrhage subscore, median (25th, 75th quartile): 0 (0, 0)
[3]
  retinal neovascularization: inhibited retinal neovascularization in an equally effective manner
[3]; oxygen exposed, Woc4D treated animal
  retinal vascular pathology in retinal whole mount (FIG. 3): less retinal vascular pathology
[3]; Woc4D 20 μg kg^−1 day^−1 P12-P16
  median total retinopathy score: 6(3,7)
[4]; oxygen + Woc4D 50 μg kg^−1 day^−1 P12-P16
  oxygen stimulated GH mRNA: markedly reduced

## C[C@@H](O)[C@@H]1NC(=O)[C@H](CCCCN)NC(=O)[C@@H](Cc2c[nH]c3ccccc23)NC(=O)[C@H](Cc2ccccc2)NC(=O)[C@@H](NC(=O)[C@H](N)Cc2ccccc2)CSSC[C@@H](C(=O)N[C@H](CO)[C@@H](C)O)NC1=O [octreotide, D-Phe-Cys-Phe-D-Trp-Lys-Thr-Cys Thr(ol)]
SSTR2 [5]
  receptor selectivity of stimulation: effective in stimulating SSTR2 to the virtual exclusion of the other receptors
[1]
  growth as measured by animal weight: unaffected
[3]; Oxygen + oct 20 bid
  Blood vessel growth subscore, median: 0
  Blood vessel tufts subscore, median: decreased blood vessel tufts; also recorded: improvement
  Central vasoconstriction subscore, median: 1
  Extra retinal neovascularization subscore, median: decreased extra-retinal neovascularization; also recorded: improvement
[3]; Room air + oct 20 bid
  Blood vessel growth subscore, median (25th, 75th quartile): 0 (0, 0)
  Blood vessel tortuosity subscore, median (25th, 75th quartile): 0 (0, 0)
  Blood vessel tufts subscore, median (25th, 75th quartile): 0 (0, 0)
  Central vasoconstriction subscore, median (25th, 75th quartile): 0 (0, 0)
  Extra retinal neovascularization subscore, median (25th, 75th quartile): 0 (0, 0)
  Hemorrhage subscore, median (25th, 75th quartile): 0 (0, 0)
[3]
  retinal neovascularization: inhibited retinal neovascularization in an equally effective manner
  median total retinopathy score [median(25th, 75th quartile)]: significant improvement
[3]; octreotide 10 μg kg^−1 bid P12-P16
  median total retinopathy score: 6(3,7)
[3]; listed as octreoride
  median total retinopathy score [median(25th, 75th quartile)]: 3.5(2.9, 4.3)
[4]; oxygen + octreotide 20 μg kg^−1 bid P12-P16
  oxygen stimulated GH mRNA: markedly reduced

From US20030207811A1, “Method of treating retinopathy of prematurity using somatostatin analogs” (priority 2002, published 2003)
